Test systems include BT-549 breast; HCC-2998 colon; HT29 colon; LOX IMVI melanoma; M14 melanoma; MDA-MB-435; NCI-H23 lung; NCI-H460 lung; RXF 393 renal; SK-MEL-28 melanoma; SR leukemia; UACC-62 melanoma; A549 NSCLC.
Holding throughout (experiment): inhibition of tumour cell growth, NCI panel, 48 h

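Where inhibition never reached the appropriate level, the endpoint shown equals the highest concentration tested. Otherwise, values were interpolated linearly from a five-concentration, 48-hour dose response in 96-well plates. TGI: total growth inhibition.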

Take `CCOC(=O)c1cc2cc(Cc3ccc4[nH]c(C(=O)OCC)cc4c3)ccc2[nH]1`: the TGI in the test on BT-549 breast is 26.8 µM; with HCC-2998 colon, greater than 100 µM; in the test on HT29 colon it was greater than 100 µM; with LOX IMVI melanoma it was greater than 100 µM; in the test with M14 melanoma, greater than 100 µM; in the test on MDA-MB-435, greater than 100 µM. Besides, the TGI in the test on NCI-H23 lung was 37.9 µM; with NCI-H460 lung, greater than 100 µM; with RXF 393 renal, 29.4 µM; with SK-MEL-28 melanoma, greater than 100 µM; in the test on SR leukemia it was greater than 100 µM; in the test with UACC-62 melanoma it was 36.3 µM.
As to `C1=C2SSC3=CC=C(SSc4ccc(s4)SSC4=CC=C(SSC(=C1)S2)S4)S3`, the TGI in the test with A549 NSCLC, in the test with BT-549 breast, in the test with HCC-2998 colon, with HT29 colon, in the test with LOX IMVI melanoma and in the test on M14 melanoma was greater than 100 µM in each case. For the same compound, the TGI with MDA-MB-435, in the test on NCI-H23 lung, with NCI-H460 lung, in the test on RXF 393 renal, in the test on SK-MEL-28 melanoma and with SR leukemia was greater than 100 µM in each case.
For the compound `COC(=O)Cc1c([C@@H]2Nc3ccccc3[C@H]2CC(=O)OC)[nH]c2ccccc12`, the TGI is greater than 100 µM in the test on A549 NSCLC; 75 µM in the test on BT-549 breast; greater than 100 µM with HCC-2998 colon; greater than 100 µM in the test with HT29 colon; greater than 100 µM in the test with LOX IMVI melanoma; 84.8 µM in the test on MDA-MB-435. Moreover, the TGI in the test with NCI-H23 lung is greater than 100 µM; with NCI-H460 lung, 65.5 µM; with RXF 393 renal, greater than 100 µM; with SK-MEL-28 melanoma, greater than 100 µM; with SR leukemia it was 71.4 µM; with UACC-62 melanoma, 34.3 µM.
Regarding `CC(C)CN1CN(c2ccccc2)C2(CCN(CC(C)(c3ccc(F)cc3)C3OCCO3)CC2)C1=O` (stereo unspecified), the TGI in the test with A549 NSCLC stood at 19.7 µM; with BT-549 breast, 20.9 µM; with HCC-2998 colon it was 8.52 µM; in the test with HT29 colon, 5.94 µM; with LOX IMVI melanoma, 5.31 µM; in the test with M14 melanoma, 8.46 µM. For the same compound, the TGI in the test on MDA-MB-435 is 23.5 µM; in the test on NCI-H23 lung, 8.69 µM; in the test on RXF 393 renal it was 21.9 µM; in the test with SK-MEL-28 melanoma, 10 µM; in the test on SR leukemia, 12.8 µM; in the test on UACC-62 melanoma, 26.3 µM.
On to `C/C(=N\Nc1nc2cc(C)ccc2s1)c1ccccn1`, for which the TGI with A549 NSCLC was greater than 31.6 µM; with BT-549 breast, greater than 69.1 µM; with HCC-2998 colon it was 28.5 µM; with HT29 colon, 6.69 µM; with LOX IMVI melanoma, 3.68 µM; with M14 melanoma it was 3.68 µM. In addition, the TGI in the test on MDA-MB-435 is greater than 64.5 µM; with NCI-H23 lung, 11.8 µM; in the test with NCI-H460 lung, 52.8 µM; with RXF 393 renal it was greater than 22.9 µM; with SK-MEL-28 melanoma it was 12.1 µM; with SR leukemia, greater than 21.8 µM.
Turning to `CCOn1cc(C[C@@]2(O)C(=O)OC3[C@@H](O)CO[C@@]32O)c2ccccc21` (stereo partly specified), the TGI in the test with A549 NSCLC, with BT-549 breast, in the test with HT29 colon, in the test on LOX IMVI melanoma, in the test with M14 melanoma and in the test on MDA-MB-435 was greater than 100 µM throughout. For the same compound, the TGI in the test with NCI-H23 lung, in the test on NCI-H460 lung, in the test with RXF 393 renal, in the test on SK-MEL-28 melanoma, in the test with SR leukemia and in the test on UACC-62 melanoma was greater than 100 µM each time.
With `Oc1ccc(-c2cc(-c3c(O)cc(O)cc3O)on2)cc1`, the TGI with A549 NSCLC, in the test on BT-549 breast, in the test with HCC-2998 colon, in the test with HT29 colon, in the test on LOX IMVI melanoma and in the test on M14 melanoma was greater than 100 µM each time. The TGI with MDA-MB-435, with NCI-H23 lung, in the test with NCI-H460 lung, with SK-MEL-28 melanoma, in the test with SR leukemia and in the test with UACC-62 melanoma was greater than 100 µM in each case.
In the case of `COc1ccc(C2CC(c3cc4c(C)c(C(=O)c5ccccc5)oc4cc3O)=Nc3ccccc3S2)cc1OC` (stereo unspecified), the TGI with A549 NSCLC, with BT-549 breast, in the test with HCC-2998 colon, in the test with HT29 colon, in the test on LOX IMVI melanoma and in the test on M14 melanoma was greater than 100 µM in each case. Also, the TGI was 2.05 µM with MDA-MB-435; greater than 100 µM in the test with NCI-H23 lung; greater than 100 µM with NCI-H460 lung; greater than 100 µM in the test on SK-MEL-28 melanoma; greater than 100 µM in the test on SR leukemia; greater than 85.8 µM in the test on UACC-62 melanoma.
Take `CCOC(=O)C(NCc1ccccc1)(NC(=O)c1ccccc1)C(F)(F)F` (stereo unspecified): the TGI with A549 NSCLC, with BT-549 breast, in the test with HCC-2998 colon, in the test on HT29 colon, with LOX IMVI melanoma and with M14 melanoma was greater than 100 µM each time. Besides, the TGI with MDA-MB-435, in the test on NCI-H23 lung, with RXF 393 renal, in the test with SK-MEL-28 melanoma, with SR leukemia and with UACC-62 melanoma was greater than 100 µM each time.
On to `O=C(C=P(c1ccccc1)(c1ccccc1)c1ccccc1)C12CC3CC(CC(C3)C1)C2`, for which the TGI with A549 NSCLC was determined as 36 µM; in the test on BT-549 breast, 33.8 µM; with HCC-2998 colon, 32.1 µM; in the test with HT29 colon, 23.2 µM; in the test with LOX IMVI melanoma it was 41.5 µM; in the test on M14 melanoma, 32.7 µM. Besides, the TGI with MDA-MB-435 is 26.6 µM; in the test with NCI-H23 lung, 33.2 µM; in the test with NCI-H460 lung it was 31.3 µM; with SK-MEL-28 melanoma, 31.8 µM; in the test on SR leukemia, greater than 100 µM; in the test on UACC-62 melanoma, 29.1 µM.
Consider `COC(=O)c1ccc(CN2CCc3c([nH]c4ccccc34)C2CO)o1` (stereo unspecified), for which the TGI in the test with A549 NSCLC, in the test on BT-549 breast, with HCC-2998 colon, in the test with HT29 colon, with M14 melanoma and with MDA-MB-435 was greater than 10 µM each time. In addition, the TGI in the test on NCI-H23 lung, with RXF 393 renal, in the test on SK-MEL-28 melanoma, in the test on SR leukemia and in the test on UACC-62 melanoma was greater than 10 µM throughout.

(Values after PubChem BioAssay (NCI).)
